Like-named read-outs stand apart in the source and are kept apart here. One block for each compound: values may come before it.
How the values were obtained:
asthma patients [1] = conditions: comparators, cited from earlier work
[2] = system: patients with mild/moderate asthma; assay: Cilomalast/low dose inhaled corticosteroid (ICS) dose-ranging study; assay type: in vivo, human
From the text: This was a phase IIB, randomised, placebo-controlled, dose-ranging study with a one-week single-blind placebo run-in, a 6-week double-blind treatment phase and a one-week follow-up phase in patients with mild/moderate asthma.
Study population: Male or female patients aged between 18 and 70 years, with mild to moderate asthma, who were not adequately controlled on low doses of inhaled corticosteroids (no greater than 500 mcg beclomethasone dipropionate/day or equivalent) were eligible. Patients were required to have a screening FEV1 of >50% and <80% predicted for height, age, sex and race and a 12% or greater reversibility after beta-2 agonist administration. Patients had to have a summary symptom score of 6 or more on 4 out of 7 days preceding the baseline visit to be randomised. The sample size was 300 evaluable patients.
cilomalast was dosed at 5 mg, 10 mg 15 mg twice daily for 6 weeks.
Subjects were on a median of 500 mcg of beclometbasone equivalent although the mean dose of ICS was 652 mcg.
Primary endpoint: change from baseline to endpoint in trough clinic expiratory volume in 1 second (FEV1), changes in clinic FEV1 every week and over a 4 hour period following first dose of double-blind medication.
The primary efficacy measure was defined as the change from baseline to endpoint in trough clinic forced expiratory volume in 1 second (FEV1). Changes in clinic FEV1 were also analysed at each week of the double-blind treatment phase and over a 4-hour period immediately following the first dose of double-blind medication. Secondary efficacy variables were use of inhaled/nebulised beta-2 agonist and overnight asthma symptoms. Tertiary efficacy variables were forced vital capacity (FVC), clinic peak expiratory flow rate (PEFR), forced expiratory flow at 25-75% (FEF25-75) and 75% (FEF75), domiciliary PEFR variability, domiciliary PEFR (morning and evening), summary symptom score (a composite score of overnight, morning and overall daytime asthma), morning asthma, overall daytime asthma, inhaled corticosteroid use, cough, wheeze, breathlessness/chest tightness, asthma exacerbation rates and global assessments by the physician and the patient.

[3] = system: patients with mild/moderate asthma on ≧800 mcg of beclomethasone; assay: Cilomalast/high dose inhaled corticosteroid (ICS) study; assay type: in vivo, human
Experimental: R, DB, PC, DR in patients with mild/moderate asthma on ≧800 mcg of beclomethasone
cilomalast® doses were 5, 10 and 15 mg twice daily for 4 weeks.
Primary endpoint: trough clinic FEV1.
Secondary endpoints: morning PEFR, symptoms, PEFR variability, evening PEFR, clinic PEFR, FEF25-75, FEF75, rescue medication used.

asthma patients [4] = assay: Allergen challenge studies (LAR); assay type: in vivo, human; conditions: Ariflo 15 mg bd
From the text: Legend: Data on cilomalast was taken from the protocol analysis in asthma patients on <652 mcg of ICS. Data on montelukast (MT), budesonide (BDP) and both was taken from a single study in the Singulair SBA that examined the effect of Singulair relative to inhaled […] corticosteroids.

[5] = developed as an antidepressant; e.g. pyrosis, nausea and emesis; cited from earlier work

SMILES: O=C(Nc1cccc2c(=O)cc(-c3nnn[nH]3)oc12)c1ccc(OCCCCc2ccccc2)cc1 [Ultair]
- % Max fall LAR (treatment effect) (asthma patients [1]; ICS = 800 mcg budesonide): 10.7%
- % Protection max fall LAR (asthma patients [1]; ICS = 800 mcg budesonide): 30.8%
- % AUC of LAR (treatment effect) (asthma patients [1]): 42.4%
- % Protection AUC LAR (asthma patients [1]): 42.6%

- trough concentrations ([3]; 5, 10, 15 mg twice daily): dose proportional
SMILES: COc1ccc([C@]2(C#N)CC[C@@H](C(=O)O)CC2)cc1OC1CCCC1 [cilomalast, cis 4-cyano-4-(3-cyclopentyloxy-4-methoxyphenyl)cyclohexan-1-carboxylic acid]
- 4 hour FEV1, domiciliary PEFR, FEF25-75, physician and patient global assessment scores ([2]; 15 mg BID): Corroborating support
- improvement in trough FEV1 at endpoint, ITT analysis, vs placebo ([2]; 15 mg BID, 6 weeks, on low dose ICS, p=0.062, no statistical improvement): 0.16 L
- improvement in trough FEV1, excluding patients on ICS doses >500 mcg of beclamethasone ([2]; 15 mg BID, p=0.033, significant): 0.21 L
- dose ordering of response for trough FEV1 at endpoint, ITT analysis ([2]; 5, 10, 15 mg twice daily for 6 weeks): dose-ordered
- comparison with Singulair when added to low dose ICS ([2]; placebo group also improved in the cilomalast study): outperformed Singulair
- 4 hour clinic FEV1, clinic FVC, PEFR ([3]; 10 mg BID): numerically superior results
- improvement in trough FEV1, repeated measures analysis, patients on <800 mcg of ICS excluded ([3]; 10 mg BID, p=0.009): 0.16 L
- dose ordering for the primary endpoint (trough clinic FEV1) ([3]; 5, 10, 15 mg twice daily, 4 weeks): No dose ordering
- change in clinic trough FEV1, ITT analysis ([3]; any dose group (5, 10, 15 mg twice daily, 4 weeks)): No statistically significant change
- % AUC of LAR (treatment effect) (asthma patients [4]): 3.5%
- % Max fall LAR (treatment effect) (asthma patients [4]): 1.3%
- % Protection AUC LAR (asthma patients [4]): NONE
- % Protection max fall LAR (asthma patients [4]): NONE

SMILES: COc1ccc(C2CNC(=O)C2)cc1OC1CCCC1 (stereo not shown) [rolipram]
- side effects in clinical studies [5]: produces gastrointestinal effects
